In ChEMBL document CHEMBL5512688 (J Med Chem, 2024):

Columns and labels:
[1] = Bioavailability in ICR mouse at 60 mg/kg, IG measured upto 24 hrs by LC-MS/MS analysis; type: ADME, organism-based; settings: in vivo, po
[2] = AUC (0 to 24 hrs) in ICR mouse at 1 mg/kg, iv measured upto 24 hrs by LC-MS/MS analysis; type: ADME, organism-based; settings: in vivo
[3] = Toxicity in female BALB/c nude mouse xenografted with human LoVo cells assessed as body weight loss at 60 mg/kg, IG administered once daily for 27 days; type: organism-based; settings: in vivo, po, 648 h, time 27 day
[4] = AUC (0 to 24 hrs) in ICR mouse at 60 mg/kg, IG measured upto 24 hrs by LC-MS/MS analysis; type: ADME, organism-based; settings: in vivo, po
[5] = Clearance in ICR mouse at 1 mg/kg, iv measured upto 24 hrs by LC-MS/MS analysis; type: ADME, organism-based; settings: in vivo
[6] = Volume of distribution in ICR mouse at 1 mg/kg, iv measured upto 24 hrs by LC-MS/MS analysis; type: ADME, organism-based; settings: in vivo
[7] = system: A-427; assay: Antiproliferative activity against human A-427 cells assessed as inhibition of cell growth incubated for 72 hrs by CCK-8 assay; type: functional, cell-based; settings: A-427, 72 h
[8] = Metabolic stability in human liver microsome assessed as parent compound remaining measured at 60 mins by LCMS/MS analysis; type: ADME; settings: liver microsomes, read-out: Stability
[9] = biological target: T1, Wee1-like protein kinase (Homo sapiens, UniProt P30291); assay: Inhibition of Wee1 in human U2OS cells assessed as reduction in CDK1 phosphorylation measured for 1 hr by Western blot analysis; type: cell-based
[10] = biological target: T1, Wee1-like protein kinase; assay: Inhibition of human Wee1 (215 to 647 residues) using polyornithine/tyrosine (4:1) as substrate incubated for 5 mins in presence of ATP by micro beta plate reader analysis
[11] = Metabolic stability in mouse liver microsome assessed as parent compound remaining measured at 60 mins by LCMS/MS analysis; type: ADME; settings: liver microsomes, read-out: Stability
[12] = system: LoVo; assay: Antitumor activity against human LoVo cells xenografted in female BALB/c nude mouse assessed as tumor growth inhibition at 60 mg/kg, IG administered once daily for 27 days; type: functional; settings: po, 648 h, time 27 day, read-out: TGI
[13] = system: LoVo; assay: Antiproliferative activity against human LoVo cells assessed as inhibition of cell growth incubated for 72 hrs by CCK-8 method; type: functional, cell-based
[14] = Half life in ICR mouse at 1 mg/kg, iv measured upto 24 hrs by LC-MS/MS analysis; type: ADME, organism-based; settings: in vivo
[15] = Half life in ICR mouse at 60 mg/kg, IG measured upto 24 hrs by LC-MS/MS analysis; type: ADME, organism-based; settings: in vivo, po
[16] = Acute toxicity in female C57 mouse assessed as body weight loss at 2000 mg/kg, IG measured for 7 days; type: organism-based; settings: in vivo, po, 168 h, time 7 day

T1 sequence (P30291 whole entry, the tested form may be a part): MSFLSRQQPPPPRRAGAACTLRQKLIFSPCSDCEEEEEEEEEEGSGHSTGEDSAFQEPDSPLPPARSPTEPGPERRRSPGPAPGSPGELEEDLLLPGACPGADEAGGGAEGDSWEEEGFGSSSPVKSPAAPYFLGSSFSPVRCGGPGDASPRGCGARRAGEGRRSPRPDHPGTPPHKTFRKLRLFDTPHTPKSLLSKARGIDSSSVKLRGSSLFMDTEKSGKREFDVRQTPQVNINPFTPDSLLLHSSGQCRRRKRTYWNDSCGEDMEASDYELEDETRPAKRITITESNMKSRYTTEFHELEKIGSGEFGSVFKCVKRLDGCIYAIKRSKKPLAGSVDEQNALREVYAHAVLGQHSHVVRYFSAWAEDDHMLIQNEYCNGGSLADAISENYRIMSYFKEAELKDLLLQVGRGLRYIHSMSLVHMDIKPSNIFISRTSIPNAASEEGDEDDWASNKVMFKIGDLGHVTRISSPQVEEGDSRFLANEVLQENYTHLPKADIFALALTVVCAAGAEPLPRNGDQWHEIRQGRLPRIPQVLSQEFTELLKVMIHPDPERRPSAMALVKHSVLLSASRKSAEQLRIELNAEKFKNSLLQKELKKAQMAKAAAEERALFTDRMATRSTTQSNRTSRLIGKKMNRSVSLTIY

Compound	bioavailability [1] [%]	AUC(0-t) at 24 h [2] [ng·h/mL]	Activity [3]	AUC(0-t) at 24 h [4] [ng·h/mL]	clearance [5] [mL/min/kg]	Vd [6] [L/kg]	IC50 [7] [nM]	remaining at 1 h [8] [%]	IC50 [9] [nM]	IC50 [10] [nM]	remaining at 1 h [11] [%]	inhibition in vivo at 60 mg/kg [12] [%]	IC50 [13] [nM]	half-life [14] [h]	half-life [15] [h]	Activity [16]
C=CCn1c(=O)c2cnc(Nc3ccc(N4CCN(CC)CC4)cc3)nc2n1-c1cccc(-c2cnccn2)n1	46.5	151	Toxic	4200	108	7.4	88	65.2	341	1.6	18	69	92	0.8		
C=CCn1c(=O)c2cnc(Nc3ccc(N4CCN(C)CC4)cc3)nc2n1-c1cccc(-c2ncc(C)cn2)n1	83.1	1160		58100	14.2	1.98	476	71.2	367	2.2	59.4	72	555	1.65	3.9	
C=CCn1c(=O)c2cnc(Nc3ccc(N4CCN(C)CC4)cc3)nc2n1-c1ccc2c(n1)[C@@](O)(CC)CC2 [AZENOSERTIB]									567			80	317			
C=CCn1c(=O)c2cnc(Nc3ccc(N4CCC(N5CCN(C)CC5)CC4)cc3)nc2n1-c1cccc(-c2cnccn2)n1	48.5	699		20300	23.8	5.6	192	76.3	401	2	78.5	58	166	2.55		
C=CCn1c(=O)c2cnc(Nc3ccc(N4CCN(C)CC4)cc3)nc2n1-c1cccc(C(C)(C)O)n1 [ADAVOSERTIB]	82.1	47.1		2320	350	16.1	311	32.7			9.67	70	328	0.59	1.67	Toxic
C=CCn1c(=O)c2cnc(Nc3ccc(N4CCN(C)CC4)cc3)nc2n1-c1cccc(-c2ncccn2)n1	61.1	403		14800	41.2	4.24	399	79.8	465	2.2	63.9		557	1.19	1.74	
C=CCn1c(=O)c2cnc(Nc3ccc(N4[C@@H]5CC[C@H]4CN(C)C5)cc3)nc2n1-c1cccc(-c2ncccn2)n1	91.3	124		6810	128	13.4	115	64.2	166	26	82.3	53	243	1.38	2.97	
